Read-outs that look alike come from different tables or passages of the source. Values belong to the compound of their own block, whether it stands above or below them.
Test: Pharmacokinetic activity in rats: IV bolus and oral gavage; plasma, brain and CSF levels by LC-MS/MS
Format: in vivo, Male Sprague-Dawley rats
Settings: rat; for Tmax: PO administration of Compound 6, 10 mg/kg, read-out: median Tmax; for presence in brain samples: levels believed due to contamination of brain samples with blood
Description: Male Sprague-Dawley rats (n=3/group) were assigned to Groups 1 to 6. Group 1 was administered an intravenous bolus dose of 1 mg/kg a test compound in 30% polyethyleneglycol-200 (PEG-200): 10% DMSO in saline. Serial samples of blood were collected at 0.05, 0.15, 0.75, 1.5, 3, 6, 10 and 24 hours via an implanted jugular vein catheter. Groups 2-6 received oral gavage doses of a test compound, formulated in 100% PEG300 (10 mg/kg). Rats from groups 2-6 were sacrificed at 0.25, 2, 6, 10 or 24 hours post-dose and blood samples (1 mL via cardiac puncture) were collected into chilled tubes containing K2EDTA as the anticoagulant. CSF and brain tissue were also collected at these time points. Blood samples were immediately centrifuged at 3000 g for 5 minutes under refrigerated conditions (4° C.). Plasmas and CSF samples were mixed with an aqueous solution of ascorbic acid to reach a final concentration of 2%. Brain, plasma and CSF samples were stored at −80° C. until analysis. The test compound and by-product concentrations were determined by LC-MS/MS. The eluent from a reversed-phase gradient (water/acetonitrile both containing 0.1% v/v formic acid) on a 1290 UHPLC system (Agilent Technologies, Stockport, UK) was introduced by positive electrospray ionization into an API6500 mass spectrometer (AB Sciex, Warrington, UK) and analyzed by multiple reaction monitoring (MRM). The lower limit of quantification (LLOQ) was in the range 1-10 ng/mL for the test compound and by-products. The mean plasma concentration-time data for each group were used to calculate pharmacokinetic parameters of the test compound and by-products with the software program Phoenix WinNonlin version 6.4 (Certara L. P., Princeton, N.J.).

[1] = male, Sprague-Dawley, plasma, PO administration of Compound 6, 10 mg/kg in 100% PEG300, mean, read-out: plasma Cmax
[2] = male, Sprague-Dawley, IV bolus 1 mg/kg, plasma

levels in plasma, brain and CSF (compared with Compound 6a) (after dosing Compound 6): much lower levels
Structure (SMILES): Cc1c(-c2ccc(S(C)(=O)=O)cc2)nn(CC(=O)O)c1O [2-[5-hydroxy-3-(4-methanesulfonylphenyl)-4-methyl-1H-pyrazol-1-yl]acetic acid]

Kp (male, Sprague-Dawley, CSF, PO 10 mg/kg, 0.25-2 h, read-out: mean CSF:plasma ratio): 4 | Cmax (male, Sprague-Dawley, CSF, PO Compound 6 10 mg/kg, at 0.25 h, read-out: Cmax in CSF): 26 ± 18 ng/mL | Kp at 0.25 h (male, Sprague-Dawley, brain, PO 10 mg/kg, 0.25 h, read-out: mean brain:plasma ratio): 1.1 | Cmax (male, Sprague-Dawley, brain, PO Compound 6 10 mg/kg, at 0.25 h, read-out: Cmax in brain): 8 ± 2 ng/g | clearance (male, Sprague-Dawley, plasma, IV bolus 1 mg/kg in 30% PEG-200:10% DMSO in saline): 41 ± 2 mL/min/kg | Vd (male, Sprague-Dawley, plasma, IV bolus 1 mg/kg, read-out: volume of distribution): 1.1 ± 0.1 L/kg | Cmax [1]: 8 ng/mL | C0 [2]: 110 ± 10 ng/mL | half-life [2]: 24 ± 0.6 min | Tmax (male, Sprague-Dawley, plasma): 15 min | absorption after oral dosing (PO 10 mg/kg): very well absorbed | presence in brain samples: Traces
Structure (SMILES): CCOC(=O)CN1N=C(c2ccc(S(C)(=O)=O)cc2)C(C)(NO)C1=O (stereo not shown) [Compound 6, Ethyl 2-[4-(hydroxyamino)-3-(4-methanesulfonylphenyl)-4-methyl-5-oxo-4,5-dihydro-1H-pyrazol-1-yl]acetate]
metabolism (after oral dosing): rapidly metabolized at the ester function

Cmax (male, Sprague-Dawley, CSF, PO Compound 6 10 mg/kg, at 2 h, read-out: Cmax in CSF): 107 ± 33 ng/mL | Cmax (male, Sprague-Dawley, brain, PO Compound 6 10 mg/kg, at 2 h, read-out: Cmax in brain): 85 ± 22 ng/g | Cmax [1]: 5220 ng/mL | Tmax (male, Sprague-Dawley, plasma): 15 min | amount in brain (PO Compound 6 10 mg/kg): low | plasma concentration relative to parent compound (Compound 6) (PO Compound 6 10 mg/kg, at Cmax (0.25 h)): 700 fold | plasma concentration relative to parent compound (Compound 6) (PO Compound 6 10 mg/kg, by 2 h): 2000 fold | share among drug-related components observed in the samples (after dosing Compound 6): major drug-related component | distribution (after oral dosing of Compound 6): restricted to the periphery | presence in brain samples: Traces
Structure (SMILES): CC1(NO)C(=O)N(CC(=O)O)N=C1c1ccc(S(C)(=O)=O)cc1 (stereo not shown) [Compound 6a, 2-[4-(hydroxyamino)-3-(4-methanesulfonylphenyl)-4-methyl-5-oxo-4,5-dihydro-1H-pyrazol-1-yl]acetic acid]

levels in plasma, brain and CSF (compared with Compound 6a) (after dosing Compound 6): much lower levels
Structure (SMILES): CCOC(=O)Cn1nc(-c2ccc(S(C)(=O)=O)cc2)c(C)c1O [ethyl 2-[5-hydroxy-3-(4-methanesulfonylphenyl)-4-methyl-1H-pyrazol-1-yl]acetate]

— patent US10723704B2, “Pyrazolone derivatives as nitroxyl donors” (Cardioxyl Pharmaceuticals, Inc., priority 2015, dated 2020)
